# Results: patent publication US20240316067A1, “METHODS OF DECREASING HEPARAN SULFATE EXPRESSION USING EXT1 INHIBITORS” (priority 2023, published 2024)
# How the values were obtained:
# Type in all cases: cell-based
# HS3ST1 = HS3ST1 reporter cell line, HTS of FDA-approved drug library (EC-50, CCK-8); details: a listed drug is a confirmed inhibitor
# Text: FIGS. 13A-13C show EC-50 and CCK-8 experiments on HS3ST1 using bortezomib.
# FIGS. 14A-14C show EC-50 and CCK-8 experiments on HS3ST1 using zinc pyrithione.
# FIGS. 15A-15B show EC-50 and CCK-8 experiments on HS3ST1 using artesunate.
# (§1) Using a stable cell line with promoter luciferase reporter of the HS-biosynthetic gene EXT1, the EXT1 and other HS-biosynthetic gene reporter cell lines were screened with an FDA-approved drug library. (FIG. 1; FIG. 2)
# EXT1 = EXT1 promoter luciferase reporter stable cell line, HTS of FDA-approved drug library (EC-50, CCK-8); details: for confirmed candidates when screened with respect to EXT1: EC-50 and CCK-8, 10 μL; for Inhibition Candidate, confirmation at lower concentration: EXT1 cell line, 2nd confirmatory screen, a listed drug is a confirmed inhibitor
# Text: as §1
# HS3ST4 = HS3ST4 reporter cell line, HTS of FDA-approved drug library; details: a listed drug is a confirmed inhibitor
# Text: as §1
compound,measurement,setting,value
C[C@H]1[C@H](OC(=O)CCC(=O)O)O[C@@H]2O[C@@]3(C)CC[C@H]4[C@H](C)CC[C@@H]1[C@@]24OO3 [Artesunate],"Inhibition Candidate, confirmation at lower concentration",HS3ST1,A1- Artesunate
CC(C)C[C@H](NC(=O)[C@H](Cc1ccccc1)NC(=O)c1cnccn1)B(O)O [Bortezomib],"Inhibition Candidate, confirmation at lower concentration",HS3ST1,B3- Bortezomib
"C=C1/C(=C\C=C2/CCC[C@]3(C)[C@@H]([C@H](C)CCCC(C)(C)O)CC[C@@H]23)C[C@@H](O)C[C@@H]1O [Calcitriol, 1, 25-dihydroxycholecalciferol]",confirmed candidates when screened with respect to EXT1,EXT1,confirmed candidates
same,"Inhibition Candidate, confirmation at lower concentration",EXT1,B2- Calcitriol
"COc1ccc(/C=C\c2cc(OC)c(OC)c(OC)c2)cc1OP(=O)(O)O [Frosbretabullin, Fosbretabulin]","Inhibition Candidate, confirmation at lower concentration",HS3ST4,D5- Frosbretabullin
O=C(Nc1ccc([N+](=O)[O-])cc1Cl)c1cc(Cl)ccc1O [Niclosamide],"Inhibition Candidate, confirmation at lower concentration",HS3ST4,A6- Niclosamide
"C=C1CC[C@H](O)C/C1=C/C=C1\CCC[C@]2(C)[C@@H]([C@H](C)CCCC(C)C)CC[C@@H]12 [Vitamin D3, cholecalciferol]",confirmed candidates when screened with respect to EXT1,EXT1,confirmed candidates
same,"Inhibition Candidate, confirmation at lower concentration",EXT1,D5- Vitamin D3
same,"Inhibition Candidate, confirmation at lower concentration",EXT1; listed as vitamin D3,confirmed to inhibit at low doses
Zinc pyrithione,"Inhibition Candidate, confirmation at lower concentration",HS3ST1,D6- Zinc Pyrithione
